Experimental data from patent US7109150B2, “Trifluoromethylpyrrolecarboxamides and trifluoromethylpyrrolethioamides as fungicides” (Syngenta Crop Protection, Inc., priority 1999, dated 2006).

For Cn1cc(C(=O)Nc2ccccc2-c2ccc(Cl)s2)c(C(F)(F)F)c1 [Example 3, 1-Methyl-4-trifluoromethyl-1H-pyrrole-3-carboxylic acid [2′-(5′-chloro-thienyl)-2-benzamide]], the melting point was 139 to 141 °C.
